Measured values from patent US20090062243A1, “Lupane-Type Triterpenoids Modified at 30-Position and Analogues Thereof” (ADVANCED LIFE SCIENCES, INC., priority 2007, published 2009).

Assays:
[1] = system: SK-MEL-2 (melanoma); test: MTS cell viability assay, SK-MEL-2; type: cell-based
Procedure: (§1) Cells were plated, the evening before treatment, for each treatment on 96-well plates (1×10^4 cells/well) in 100 μL volume per well. Analog solutions were prepared by diluting each test compound in DSMO (10 mM) with the appropriate cell growth media for each individual cell line, or in “Universal Media” if several cell lines were to be assayed in parallel, immediately prior to cell treatment. Universal Media consisted of 5 mL sodium pyruvate (100× liquid stock, MediaTech), 5 mL glucose (100×, 45% liquid stock, MediaTech), 5 mL Penicillin/Streptomycin (100× liquid stock, MediaTech), 10 mL sodium bicarbonate (50× liquid stock, MediaTech), 25 mL Fetal Calf Serum, 1.25 mL insulin (4 mg/mL, Gibco) and […] RPMI media with 2 mM L-glutamine for a total volume of 500 mL.
(§2) Cells were treated by aspirating plating media from each well and adding 80 μL of betulinic acid (control) or each analog solution in serial dilutions to the adherent cells. All treatments were performed in triplicate. Growth media (80 μL) was added to 3 blank wells (no cells) to measure background from the growth media. Growth media alone (no DMSO or test compound) was added to 3 wells containing cells to measure the baseline MTS activity. Vehicle (DMSO) control in serial dilutions, added to cells, was also included to monitor basal toxicity from DMSO. Cells were incubated at 37° C. for 72 h, or 120 h for the OVCAR cell lines. MTS reagent (per 96-well plate) were prepared by combining 2 mL of MTS working solution (Cell Titer AQueous Non-Radioactive Cell Proliferation Assay, Promega, cat#G1112), 100 μL of 0.92 mg/mL phenazine methosulfate/Dulbecco's PBS and 2.1 mL growth media. MTS reagent (40 μL) were added to each well and incubated at 37° C. for 1.5 to 4 h. Plates were gently shaken by hand until solution in each well appeared homogenous. Absorbances at 490 nm were measured on a Wallac Victor II plate reader at multiple time points following the addition of MTS reagent for each plate. Triplicate absorbance (490 nm) measurements were averaged following background (no cell) subtraction for each drug concentration. Percent Cell Viability was calculated for each drug concentration using the following equation:
(§3) {[Absorbance(analog treated)]/[Absorbance(DMSO treated)]}×100%
(§4) Cytotoxicity dose response for the triterpenoid derivatives synthesized in SK-MEL-2 (melanoma), A-375 (melanoma), Daoy (glioblastoma), LN-229 (glioblastoma), OVCAR-3 (ovarian carcinoma), HT-29 (colon carcinoma), MCF-7 (breast carcinoma) cell lines using the standard MTS assay is summarized in Table 1. In Table 1, compounds 22a-d and compounds 23a-c refer to structures 22 and 23 in Scheme 5, respectively. Compounds 24aa-an and 24ba-bq refer to structure 24 in Scheme 6. Compounds 26a-e refer to structure 26 in Scheme 6. Compounds 36a-c refer to structure 36 in Scheme 10.

[2] = system: A-375 (melanoma); test: MTS cell viability assay, A-375; type: cell-based
Procedure: as §1, §2, §3, §4

[3] = system: Daoy; test: MTS cell viability assay, Daoy; type: cell-based; conditions: cells incubated 72 h
Procedure: as §1, §2, §3, §4

[4] = system: LN-229 (glioblastoma); test: MTS cell viability assay, LN-229; type: cell-based
Procedure: as §1, §2, §3, §4

[5] = system: OVCAR-3 (ovarian carcinoma); test: MTS cell viability assay, OVCAR-3; type: cell-based
Procedure: as §1, §2, §3, §4

[6] = system: HT-29 (colon carcinoma); test: MTS cell viability assay, HT-29; type: cell-based
Procedure: as §1, §2, §3, §4

[7] = system: MCF-7 (breast carcinoma); test: MTS cell viability assay, MCF-7; type: cell-based
Procedure: as §1, §2, §3, §4

[8] = system: CEM; test: MTS cell viability assay, CEM; type: cell-based; conditions: cells incubated 72 h
Procedure: as §1, §2, §3

[9] = system: H-146; test: MTS cell viability assay, H-146; type: cell-based
Procedure: as §1, §2, §3

[10] = Homo sapiens, SK-MEL-2, cells incubated 72 h
[11] = Homo sapiens, A-375, cells incubated 72 h
[12] = Homo sapiens, LN-229, cells incubated 72 h
[13] = Homo sapiens, OVCAR-3, 120 h for the OVCAR cell lines
[14] = Homo sapiens, HT-29, cells incubated 72 h
[15] = Homo sapiens, MCF7, cells incubated 72 h
[16] = Homo sapiens, NCI-H146, cells incubated 72 h

SMILES | IC50 [1, 10] [µM] | IC50 [2, 11] [µM] | IC50 ([3]; Homo sapiens, Daoy) [µM] | IC50 [4, 12] [µM] | IC50 [5, 13] [µM] | IC50 [6, 14] [µM] | IC50 [7, 15] [µM] | IC50 ([8]; Homo sapiens, CCRF-CEM) [µM] | IC50 [9, 16] [µM] | IC50 ([1]; cells incubated 72 h) [µM] | IC50 ([2]; cells incubated 72 h) [µM] | IC50 [3] [µM] | IC50 ([4]; cells incubated 72 h) [µM] | IC50 ([5]; 120 h for the OVCAR cell lines) [µM] | IC50 ([6]; cells incubated 72 h) [µM] | IC50 ([7]; cells incubated 72 h) [µM] | IC50 [8] [µM] | IC50 ([9]; cells incubated 72 h) [µM] | melting point [°C]
C=C(CO)[C@@H]1CC[C@]2(CO)CC[C@]3(C)[C@H](CC[C@@H]4[C@@]5(C)C=CC(=O)C(C)(C)[C@@H]5CC[C@]43C)[C@@H]12 [Compound 30] | > 75 | 61 | > 75 | 68 | > 75 | 67 | > 75 | 16 | 66 | – | – | – | – | – | – | – | – | – | –
C=C(C=O)[C@@H]1CC[C@]2(COC3CCCCO3)CC[C@]3(C)[C@H](CC[C@@H]4[C@@]5(C)C=CC(=O)C(C)(C)[C@@H]5CC[C@]43C)[C@@H]12 (some centres unmarked) [Compound 34] | 2 | 1 | 6 | 6 | 2 | 2 | 8 | 1 | 2 | – | – | – | – | – | – | – | – | – | –
C=C(CO)[C@@H]1CC[C@]2(CO)CC[C@]3(C)[C@H](CC[C@@H]4[C@@]5(C)CCC(=O)C(C)(C)[C@@H]5CC[C@]43C)[C@@H]12 [Compound 7a] | > 75 | 40 | > 75 | > 75 | 43 | 44 | 43 | 45 | 60 | – | – | – | – | – | – | – | – | – | –
C=C(C)[C@@H]1CC[C@]2(C(=O)O)CC[C@]3(C)[C@H](CC[C@@H]4[C@@]5(C)CC[C@H](O)C(C)(C)[C@@H]5CC[C@]43C)[C@@H]12 [Compound 1, betulinic acid (3β-hydroxy-lup-20(29)-en-28-oic acid), reference compound] | – | – | – | – | – | – | – | – | – | 7 | 22 | 11 | 29 | 40 | 31 | 30 | 2 | 8 | –
C=C(C=O)[C@@H]1CC[C@]2(CO)CC[C@]3(C)[C@H](CC[C@@H]4[C@@]5(C)C=CC(=O)C(C)(C)[C@@H]5CC[C@]43C)[C@@H]12 [Compound 35] | 14 | 6 | 17 | 58 | 6 | 8 | 32 | 2 | 5 | – | – | – | – | – | – | – | – | – | –
C=C(C)[C@@H]1CC[C@]2(COC3CCCCO3)CC[C@]3(C)[C@H](CC[C@@H]4[C@@]5(C)C=C(C=O)C(=O)C(C)(C)[C@@H]5CC[C@]43C)[C@@H]12 (some centres unmarked) [Compound 32] | < 2 | 6 | < 2 | 2 | 6 | 6 | 6 | – | – | – | – | – | – | – | – | – | – | – | –
C=C(CO)[C@@H]1CC[C@]2(COC3CCCCO3)CC[C@]3(C)[C@H](CC[C@@H]4[C@@]5(C)CCC(NCCOC)C(C)(C)[C@@H]5CC[C@]43C)[C@@H]12 (some centres unmarked) [Compound 24ae] | 34 | 6 | 28 | 17 | 17 | 19 | 16 | – | – | – | – | – | – | – | – | – | – | – | –
C=C(C(OC)OC)[C@@H]1CC[C@]2(CO)CC[C@]3(C)[C@H](CC[C@@H]4[C@@]5(C)CCC(=O)C(C)(C)[C@@H]5CC[C@]43C)[C@@H]12 [Compound 10] | 17 | 7 | 17 | 24 | 45 | 15 | 17 | – | – | – | – | – | – | – | – | – | – | – | –
C=C(CO)[C@@H]1CC[C@]2(CO)CC[C@]3(C)[C@H](CC[C@@H]4[C@@]5(C)CCC(NCCc6ccc(O)cc6)C(C)(C)[C@@H]5CC[C@]43C)[C@@H]12 (some centres unmarked) [Compound 24ag] | – | – | – | – | – | – | – | – | – | 12 | 17 | 16 | 17 | 5 | 26 | 28 | – | – | –
C=C(CO)[C@@H]1CC[C@]2(COC3CCCCO3)CC[C@]3(C)[C@H](CC[C@@H]4[C@@]5(C)CCC(N)C(C)(C)[C@@H]5CC[C@]43C)[C@@H]12 (some centres unmarked) [Compound 24aa] | 5 | 0.89 | 4 | 4 | 15 | 12 | 6 | – | – | – | – | – | – | – | – | – | – | – | –
C=C(CO)[C@@H]1CC[C@]2(CO)CC[C@]3(C)[C@H](CC[C@@H]4[C@@]5(C)CCC(NCCOC)C(C)(C)[C@@H]5CC[C@]43C)[C@@H]12 (some centres unmarked) [Compound 24af] | – | – | – | – | – | – | – | – | – | 38 | 18 | 34 | 38 | 40 | 47 | 40 | – | – | –
C=C(CO)[C@@H]1CC[C@]2(CO)CC[C@]3(C)[C@H](CC[C@@H]4[C@@]5(C)CCC(N)C(C)(C)[C@@H]5CC[C@]43C)[C@@H]12 (some centres unmarked) [Compound 24ab] | 34 | 6 | 31 | 17 | 14 | 17 | 15 | – | – | – | – | – | – | – | – | – | – | – | 189 to 199
